According to patent publication US11066392B2, “Inhibitors of indoleamine 2,3-dioxygenase and methods of their use” (BRISTOL-MYERS SQUIBB COMPANY, priority 2017, dated 2021):
Like-named read-outs stand apart in the source and are kept apart here.

Molecular target: indoleamine 2,3-dioxygenase (IDO) (Homo sapiens, UniProt P14902)
Test: HeLa cell-based indoleamine 2,3-dioxygenase (IDO) assay (kynurenine production, IFNγ-stimulated)
Conditions: HeLa cells
[1] = potency class, read-out: Patent Potency Hela IC50 A < 10 nM, B > 10 nM, C > 100 nM
[2] = IFNγ 25 ng/mL, 48 hour incubation, read-out: IDO Hela IC50

indoleamine 2,3-dioxygenase (IDO), sequence (P14902 whole entry): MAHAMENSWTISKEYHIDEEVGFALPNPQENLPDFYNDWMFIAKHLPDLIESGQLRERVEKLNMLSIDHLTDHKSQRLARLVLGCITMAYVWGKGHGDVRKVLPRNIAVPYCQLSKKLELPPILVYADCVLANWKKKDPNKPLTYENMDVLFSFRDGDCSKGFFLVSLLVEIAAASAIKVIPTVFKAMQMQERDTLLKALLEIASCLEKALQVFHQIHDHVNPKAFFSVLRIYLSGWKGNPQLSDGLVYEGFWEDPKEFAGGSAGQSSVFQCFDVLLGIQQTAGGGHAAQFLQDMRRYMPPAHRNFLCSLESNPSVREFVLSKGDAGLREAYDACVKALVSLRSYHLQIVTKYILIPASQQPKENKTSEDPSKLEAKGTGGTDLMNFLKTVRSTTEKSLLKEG

| IC50 [1] [nM] | IC50 [2] [nM] | Compound |
| --- | --- | --- |
| < 10 |  | CCC(NC(=O)c1cnc(OC)nc1)C1CCC(c2ccnc3c(F)cc(F)cc23)CC1 (single isomer, unassigned) [Example 58d] |
|  | 100 | CC[C@@H](NC(=O)c1ccc(OC)nc1)[C@H]1CC[C@@H](c2ccnc3c(F)cccc32)CC1 (single isomer, unassigned) [Example 59a, N-(1-(4-(8-fluoroquinolin-4-yl)cyclohexyl)propyl)-6-methoxynicotinamide] |
|  | 330 | CC[C@@H](NC(=O)c1ccc(OC)nc1)[C@H]1CC[C@@H](c2ccnc3c(F)cccc32)CC1 (single isomer, unassigned) [Example 59c, N-(1-(4-(8-fluoroquinolin-4-yl)cyclohexyl)propyl)-6-methoxynicotinamide] |
|  | 110 | CC[C@@H](NC(=O)c1ccc(OC)nc1)[C@H]1CC[C@@H](c2ccnc3c(F)cccc32)CC1 (single isomer, unassigned) [Example 59d, N-(1-(4-(8-fluoroquinolin-4-yl)cyclohexyl)propyl)-6-methoxynicotinamide] |
|  | 820 | CC[C@@H](NC(=O)c1cnc(OC)nc1)[C@H]1CC[C@@H](c2ccnc3c(F)cccc32)CC1 (single isomer, unassigned) [Example 60a, N-(1-(4-(8-fluoroquinolin-4-yl)cyclohexyl)propyl)-2-methoxypyrimidine-5-carboxamide] |
|  | 250 | CC[C@@H](NC(=O)c1cnc(OC)nc1)[C@H]1CC[C@@H](c2ccnc3c(F)cccc32)CC1 (single isomer, unassigned) [Example 60b, N-(1-(4-(8-fluoroquinolin-4-yl)cyclohexyl)propyl)-2-methoxypyrimidine-5-carboxamide] |
|  | 10 | CC[C@@H](NC(=O)c1cnc(OC)nc1)[C@H]1CC[C@@H](c2ccnc3c(F)cccc32)CC1 (single isomer, unassigned) [Example 60c, N-(1-(4-(8-fluoroquinolin-4-yl)cyclohexyl)propyl)-2-methoxypyrimidine-5-carboxamide] |
|  | 170 | CC[C@@H](NC(=O)c1cnc(OC)nc1)[C@H]1CC[C@@H](c2ccnc3c(F)cccc32)CC1 (single isomer, unassigned) [Example 60d, N-(1-(4-(8-fluoroquinolin-4-yl)cyclohexyl)propyl)-2-methoxypyrimidine-5-carboxamide] |
|  | 670 | CC[C@H](NC(=O)c1cnc(C)nc1)[C@H]1CC[C@H](c2ccnc3c(F)cccc32)CC1 (single isomer, unassigned) [Example 61b, N-(1-(4-(8-fluoroquinolin-4-yl)cyclohexyl)propyl)-2-methylpyrimidine-5-carboxamide] |
| > 100 |  | CC[C@H](NC(=O)c1cnc(C)nc1)[C@H]1CC[C@H](c2ccnc3c(F)cccc32)CC1 (single isomer, unassigned) [Example 61c, N-(1-(4-(8-fluoroquinolin-4-yl)cyclohexyl)propyl)-2-methylpyrimidine-5-carboxamide] |
|  | 20 | CC[C@H](NC(=O)c1cnc(C)nc1)[C@H]1CC[C@H](c2ccnc3c(F)cccc32)CC1 (single isomer, unassigned) [Example 61d, N-(1-(4-(8-fluoroquinolin-4-yl)cyclohexyl)propyl)-2-methylpyrimidine-5-carboxamide] |
|  | 70 | COc1ccc(C(=O)NC(C)C2(O)CCC(c3ccnc4ccc(F)cc34)CC2)cn1 (single isomer, unassigned) [Example 62a, N-(1-((1r,4r)-4-(6-fluoroquinolin-4-yl)-1-hydroxycyclohexyl)ethyl)-6-methoxynicotinamide] |
|  | 20 | COc1ccc(C(=O)NC(C)C2(O)CCC(c3ccnc4ccc(F)cc34)CC2)cn1 (single isomer, unassigned) [Example 62b, N-(1-((1r,4r)-4-(6-fluoroquinolin-4-yl)-1-hydroxycyclohexyl)ethyl)-6-methoxynicotinamide] |
| > 100 |  | CCC(NC(=O)c1ccc(=O)[nH]c1)C1CCC(c2ccnc(OC)c2C(F)F)CC1 (single isomer, unassigned) [Example 63-1, N-(1-((1s,4s)-4-(3-(difluoromethyl)-2-methoxypyridin-4-yl)cyclohexyl)propyl)-6-oxo-1,6-dihydropyridine-3-carboxamide] |
| > 100 |  | CCC(NC(=O)c1ccc(OC)nc1)C1CCC(c2cc[nH]c(=O)c2C(F)F)CC1 (single isomer, unassigned) [Example 64-1, N-(1-((1s,4s)-4-(3-(difluoromethyl)-2-oxo-1,2-dihydropyridin-4-yl)cyclohexyl)propyl)-6-methoxynicotinamide] |
| > 100 |  | [2H]C([2H])([2H])Oc1ccc(C(=O)NC(CC)C2CCC(c3ccnc(OC)c3C(F)F)CC2)cn1 (single isomer, unassigned) [Example 66-1, N-(1-((1s,4s)-4-(3-(difluoromethyl)-2-methoxypyridin-4-yl)cyclohexyl)propyl)-6-(methoxy-d3)nicotinamide] |
| < 10 |  | [2H]C([2H])([2H])Oc1ccc(C(=O)NC(CC)C2CCC(c3ccnc(OC)c3C(F)F)CC2)cn1 (single isomer, unassigned) [Example 66-2, N-(1-((1s,4s)-4-(3-(difluoromethyl)-2-methoxypyridin-4-yl)cyclohexyl)propyl)-6-(methoxy-d3)nicotinamide] |
| > 10 |  | CCC(NC(=O)c1ccc(OC)nc1)C1CCC(c2ccnc(F)c2C)CC1 (single isomer, unassigned) [Example 68-1, N-(1-((1r,4r)-4-(2-Fluoro-3-methylpyridin-4-yl)cyclohexyl)propyl)-6-methoxynicotinamide] |
| > 100 |  | CCC(NC(=O)c1ccc(OC)nc1)C1CCC(c2ccnc(F)c2C)CC1 (single isomer, unassigned) [Example 68-2, N-(1-((1r,4r)-4-(2-Fluoro-3-methylpyridin-4-yl)cyclohexyl)propyl)-6-methoxynicotinamide] |
| < 10 |  | COCC(NC(=O)c1ccc(OC)nc1)C1CCC(c2ccnc3ccc(F)cc23)CC1 (stereo not drawn) [Example 14a, N-(1-((1s,4s)-4-(6-Fluoroquinolin-4-yl)cyclohexyl)-2-methoxyethyl)-6-methoxynicotinamide] |
|  | 10 | COCC(NC(=O)c1ccc(OC)nc1)C1CCC(c2ccnc3ccc(F)cc23)CC1 (stereo not drawn) [Example 14b, N-(1-((1s,4s)-4-(6-Fluoroquinolin-4-yl)cyclohexyl)-2-methoxyethyl)-6-methoxynicotinamide] |
| > 100 |  | CCC(NC(=O)c1ccc(OC)nc1)C1CCC(c2ccnc(OC)c2F)CC1 (stereo not drawn) [Example 22, N-(1-(4-(3-Fluoro-2-methoxypyridin-4-yl)cyclohexyl)propyl)-6-methoxynicotinamide] |
|  | 110 | CCC(NC(=O)c1cnc(C)nc1)C1CCC(c2ccnc(OC)c2F)CC1 (stereo not drawn) [Example 23, N-(1-(4-(3-Fluoro-2-methoxypyridin-4-yl)cyclohexyl)propyl)-2-methylpyrimidine-5-carboxamide] |
| > 10 |  | CCC(NC(=O)c1ccc(=O)[nH]c1)[C@H]1CC[C@@H](c2ccnc(OC)c2C(F)F)CC1 (stereo partly drawn) [Example 63-2, N-(1-((1s,4s)-4-(3-(difluoromethyl)-2-methoxypyridin-4-yl)cyclohexyl)propyl)-6-oxo-1,6-dihydropyridine-3-carboxamide] |
